Where a SMILES comes first, the peptide text is derived from it. Bridges are numbered along the chain shown (N, C = ends). [ ]: non-standard residue; d: D form. The star is where a group is joined. Propanoyl(3-indol-3-yl) = O=C(CCc1c[nH]c2ccccc12)*; Acetyl(1-adamantyl) = O=C(CC12CC3CC(CC(C3)C1)C2)*; Acetyl(2-naphthyloxy) = O=C(COc1ccc2ccccc2c1)*; Acetyl(2-naphthyl) = O=C(Cc1ccc2ccccc2c1)*; Fmoc = O=C(OCC1c2ccccc2-c2ccccc21)*; Hydrocinnamoyl = O=C(CCc1ccccc1)*; Ava = NCCCCC(=O)O
Target: T1, specific ANP receptor sites on BASM or BAE cells (Bos taurus, UniProt P10730)
T1 construct: specific receptor sites on BASM or BAE cells; endogenous in cells; host or cells: cultured BASM and BAE cells
T1 sequence (P10730 42-537): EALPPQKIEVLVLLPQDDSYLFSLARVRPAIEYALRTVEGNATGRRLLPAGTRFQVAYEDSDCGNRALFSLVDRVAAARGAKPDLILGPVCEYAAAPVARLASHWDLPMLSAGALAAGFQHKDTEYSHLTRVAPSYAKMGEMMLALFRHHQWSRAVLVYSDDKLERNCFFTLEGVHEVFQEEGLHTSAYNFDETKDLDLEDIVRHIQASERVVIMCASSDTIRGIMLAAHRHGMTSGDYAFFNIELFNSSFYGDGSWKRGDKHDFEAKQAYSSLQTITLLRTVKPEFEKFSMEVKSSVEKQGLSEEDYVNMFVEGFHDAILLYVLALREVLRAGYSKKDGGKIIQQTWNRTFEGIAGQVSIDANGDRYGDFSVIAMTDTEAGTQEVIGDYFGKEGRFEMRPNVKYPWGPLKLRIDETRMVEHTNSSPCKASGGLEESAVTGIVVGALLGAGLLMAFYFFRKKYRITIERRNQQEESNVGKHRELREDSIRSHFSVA
Test: Competitive displacement receptor binding of (125I)-rANP(126-150) on cultured cells
Design: species or system bovine
Conditions: for Ki(app): concentration of unlabeled peptide displacing 50% of maximal binding of 0.5 nM (125I)-rANP(126-150), BASM or BAE cells
Text: Analogous "competitive displacement" receptor binding assays are considered commonplace in the art for examining specific ligand-receptor interactions.
Assuming these ANP analogs act at one or more ANP receptor sites, then increased receptor affinity should reflect increased biological potency.

Row | SMILES | Ki (Table 2A, unit not given, in nM) | Ki(app)
1 | CC[C@H](C)[C@@H]1NC(=O)[C@H](CCCNC(=N)N)NC(=O)[C@H](CC(=O)O)NC(=O)[C@H]([C@@H](C)CC)NC(=O)[C@H](CCCNC(=N)N)NC(=O)CNC(=O)CNC(=O)[C@H](Cc2ccccc2)NC(=O)[C@@H](NC(=O)[C@H](CO)NC(=O)[C@H](CO)NC(=O)[C@@H](N)CCCNC(=N)N)CSSC[C@@H](C(=O)N[C@@H](CC(N)=O)C(=O)N[C@@H](CO)C(=O)N[C@@H](Cc2ccccc2)C(=O)N[C@@H](CCCNC(=N)N)C(=O)N[C@@H](Cc2ccc(O)cc2)C(=O)O)NC(=O)CNC1=O [AP21] (H-RSSCFGGRIDRIGCNSFRY-OH; disulfide 4-14) | 15.15 | 
2 | CC[C@H](C)[C@@H]1NC(=O)[C@H](CCCNC(=N)N)NC(=O)[C@H](CC(=O)O)NC(=O)[C@H]([C@@H](C)CC)NC(=O)[C@H](CCCNC(=N)N)NC(=O)CNC(=O)CNC(=O)[C@@H](NC(=O)[C@H](CO)NC(=O)[C@H](CO)NC(=O)[C@@H](N)CCCNC(=N)N)CSSC[C@@H](C(=O)N[C@@H](CC(N)=O)C(=O)N[C@@H](CO)C(=O)N[C@@H](Cc2ccccc2)C(=O)N[C@@H](CCCNC(=N)N)C(=O)N[C@@H](Cc2ccc(O)cc2)C(=O)O)NC(=O)CNC(=O)[C@H](CC(C)C)NC(=O)CNC(=O)[C@H](CO)NC(=O)[C@H](CCC(N)=O)NC(=O)[C@H](C)NC(=O)CNC1=O [AP23, R--S--S--C--G--G--R--I--D--R--I--G--A--Q--S--G--L--G--C--N--S--F--R--Y] (H-RSSCGGRIDRIGAQSGLGCNSFRY-OH; disulfide 4-19) |  | 7.76 nM
3 | CC[C@H](C)[C@@H]1NC(=O)[C@H](CCCNC(=N)N)NC(=O)[C@H](CC(=O)O)NC(=O)[C@H]([C@@H](C)CC)NC(=O)[C@H](CCCNC(=N)N)NC(=O)CNC(=O)[C@@H](NC(=O)[C@H](CO)NC(=O)[C@H](CO)NC(=O)[C@@H](N)CCCNC(=N)N)CSSC[C@@H](C(=O)N[C@@H](CC(N)=O)C(=O)N[C@@H](CO)C(=O)N[C@@H](Cc2ccccc2)C(=O)N[C@@H](CCCNC(=N)N)C(=O)N[C@@H](Cc2ccc(O)cc2)C(=O)O)NC(=O)CNC(=O)[C@H](CC(C)C)NC(=O)CNC(=O)[C@H](CO)NC(=O)[C@H](CCC(N)=O)NC(=O)[C@H](C)NC(=O)CNC1=O [AP24, R--S--S--C--G--R--I--D--R--I--G--A--Q--S--G--L--G--C--N--S--F--R--Y] (H-RSSCGRIDRIGAQSGLGCNSFRY-OH; disulfide 4-18) |  | 25.2 nM
4 | CC[C@H](C)[C@H](NC(=O)[C@H](CCCNC(=N)N)NC(=O)[C@H](CC(=O)O)NC(=O)[C@@H](NC(=O)[C@H](CCCNC(=N)N)NC(=O)CNC(=O)CNC(=O)CCc1ccccc1)[C@@H](C)CC)C(=O)NCC(=O)N[C@@H](C)C(N)=O [AP130, (desNH2 --F)--G--G--R--I--D--R--I--G--A--NH2] (Hydrocinnamoyl-GGRIDRIGA-NH2) |  | 8.8 nM
5 | CC[C@H](C)[C@H](NC(=O)[C@H](CCCNC(=N)N)NC(=O)[C@H](CC(=O)O)NC(=O)[C@@H](NC(=O)[C@H](CCCNC(=N)N)NC(=O)CNC(=O)CNC(=O)CCc1ccccc1)[C@@H](C)CC)C(N)=O [AP132, (desNH2 --F)--G--G--R--I--D--R--I--NH2] (Hydrocinnamoyl-GGRIDRI-NH2) |  | 10.15 nM
6 | CC[C@H](C)[C@H](NC(=O)[C@H](CCCNC(=N)N)NC(=O)[C@H](CC(=O)O)NC(=O)[C@@H](NC(=O)[C@H](CCCNC(=N)N)NC(=O)CNC(=O)[C@@H](C)NC(=O)[C@H](Cc1ccccc1)NC(=O)[C@H](C)N)[C@@H](C)CC)C(=O)NCC(=O)N[C@@H](C)C(N)=O [AP133, A--F--A^ --G--R--I--D--R--I--G--A--NH2] (H-AF[dA]GRIDRIGA-NH2) |  | 2.93 nM
7 | CC[C@H](C)[C@H](NC(=O)[C@H](CCCNC(=N)N)NC(=O)[C@H](CC(=O)O)NC(=O)[C@@H](NC(=O)[C@H](CCCNC(=N)N)NC(=O)CNC(=O)CNC(=O)[C@@H](Cc1ccccc1)NC(=O)[C@H](C)N)[C@@H](C)CC)C(=O)NCC(=O)N[C@@H](C)C(N)=O [AP151, A--F^ --G--G--R--I--D--R--I--G--A--NH2] (H-A[dF]GGRIDRIGA-NH2) |  | 39.6 nM
8 | CC[C@H](C)[C@H](NC(=O)[C@H](CCCNC(=N)N)NC(=O)[C@H](CC(=O)O)NC(=O)[C@@H](NC(=O)[C@H](CCCNC(=N)N)NC(=O)[C@@H](C)NC(=O)CNC(=O)[C@H](Cc1ccccc1)NC(=O)[C@H](C)N)[C@@H](C)CC)C(=O)NCC(=O)N[C@@H](C)C(N)=O [AP157, A--F--G--A^ --R--I--D--R--I--G--A--NH2] (H-AFG[dA]RIDRIGA-NH2) |  | 5.90 nM
9 | CC[C@H](C)[C@H](NC(=O)[C@H](CCCNC(=N)N)NC(=O)[C@H](CC(=O)O)NC(=O)[C@@H](NC(=O)[C@@H](CCCNC(=N)N)NC(=O)CNC(=O)CNC(=O)[C@H](Cc1ccccc1)NC(=O)[C@H](C)N)[C@@H](C)CC)C(=O)NCC(=O)N[C@@H](C)C(N)=O [AP301, A--F--G--G--R^ --I--D--R--I--G--A--NH2] (H-AFGG[dR]IDRIGA-NH2) |  | > 200 nM
10 | CC[C@@H](C)[C@@H](NC(=O)[C@H](CCCNC(=N)N)NC(=O)CNC(=O)CNC(=O)[C@H](Cc1ccccc1)NC(=O)[C@H](C)N)C(=O)N[C@@H](CC(=O)O)C(=O)N[C@@H](CCCNC(=N)N)C(=O)N[C@H](C(=O)NCC(=O)N[C@@H](C)C(N)=O)[C@@H](C)CC [AP302, A--F--G--G--R--I^ --D--R--I--G--A--NH2] (H-AFGGR[dI]DRIGA-NH2) |  | 18.9 nM
11 | CC[C@H](C)[C@H](NC(=O)[C@H](CCCNC(=N)N)NC(=O)[C@@H](CC(=O)O)NC(=O)[C@@H](NC(=O)[C@H](CCCNC(=N)N)NC(=O)CNC(=O)CNC(=O)[C@H](Cc1ccccc1)NC(=O)[C@H](C)N)[C@@H](C)CC)C(=O)NCC(=O)N[C@@H](C)C(N)=O [AP303, A--F--G--G--R--I--D^ --R--I--G--A--NH2] (H-AFGGRI[dD]RIGA-NH2) |  | > 200 nM
12 | CC[C@H](C)[C@H](NC(=O)[C@H](CCCNC(=N)N)NC(=O)CNC(=O)CNC(=O)[C@H](Cc1ccccc1)NC(=O)[C@H](C)N)C(=O)N[C@@H](CC(=O)O)C(=O)N[C@H](CCCNC(=N)N)C(=O)N[C@H](C(=O)NCC(=O)N[C@@H](C)C(N)=O)[C@@H](C)CC [AP304, A--F--G--G--R--I--D--R^ --I--G--A--NH2] (H-AFGGRID[dR]IGA-NH2) |  | 95.6 nM
13 | CC[C@@H](C)[C@@H](NC(=O)[C@H](CCCNC(=N)N)NC(=O)[C@H](CC(=O)O)NC(=O)[C@@H](NC(=O)[C@H](CCCNC(=N)N)NC(=O)CNC(=O)CNC(=O)[C@H](Cc1ccccc1)NC(=O)[C@H](C)N)[C@@H](C)CC)C(=O)NCC(=O)N[C@@H](C)C(N)=O [AP305, A--F--G--G--R--I--D--R--I^ --G--A--NH2] (H-AFGGRIDR[dI]GA-NH2) |  | 70.62 nM
14 | CC[C@H](C)[C@H](NC(=O)[C@H](CCCNC(=N)N)NC(=O)[C@H](CC(=O)O)NC(=O)[C@@H](NC(=O)[C@H](CCCNC(=N)N)NC(=O)CNC(=O)CNC(=O)Cc1ccc2ccccc2c1)[C@@H](C)CC)C(=O)NCC(=O)N[C@@H](C)C(N)=O [AP306, (2--Naphthylacetyl)-G-G-R-I-D-R-I-G-A-NH2] ({Acetyl(2-naphthyl)}-GGRIDRIGA-NH2) |  | 2.03 nM
15 | CC[C@H](C)[C@H](NC(=O)[C@H](CCCNC(=N)N)NC(=O)[C@H](CC(=O)O)NC(=O)[C@@H](NC(=O)[C@H](CCCNC(=N)N)NC(=O)CCCCNC(=O)COc1ccc2ccccc2c1)[C@@H](C)CC)C(N)=O [AP307, (2-Naphthoxyacetyl)-NH(CH2)4 CO-R-I-D-R-I-NH2] ({Acetyl(2-naphthyloxy)-Ava}-RIDRI-NH2) |  | 39.9 nM
16 | CC[C@H](C)[C@H](NC(=O)[C@H](CCCNC(=N)N)NC(=O)[C@H](CC(=O)O)NC(=O)[C@@H](NC(=O)[C@H](CCCNC(=N)N)NC(=O)CNC(=O)CNC(=O)CC12CC3CC(CC(C3)C1)C2)[C@@H](C)CC)C(N)=O [AP309, (1-AA)--G--G--R--I--D--R--I--NH2] ({Acetyl(1-adamantyl)}-GGRIDRI-NH2) |  | 30.0 nM
17 | CC[C@H](C)[C@H](NC(=O)[C@H](CCCNC(=N)N)NC(=O)[C@H](CC(=O)O)NC(=O)[C@@H](NC(=O)[C@H](CCCNC(=N)N)NC(=O)CNC(=O)CNC(=O)OCC1c2ccccc2-c2ccccc21)[C@@H](C)CC)C(N)=O [AP311, (FMOC)--G--G--R--I--D--R--I--NH2] (Fmoc-GGRIDRI-NH2) |  | 10.33 nM
18 | CC[C@H](C)[C@H](NC(=O)[C@H](CCCNC(=N)N)NC(=O)[C@H](CC(=O)O)NC(=O)[C@@H](NC(=O)[C@H](CCCNC(=N)N)NC(=O)CNC(=O)CNC(=O)OCC1c2ccccc2-c2ccccc21)[C@@H](C)CC)C(=O)NCC(=O)N[C@@H](C)C(N)=O [AP312, (FMOC)--G--G--R--I--D--R--I--G--A--NH2] (Fmoc-GGRIDRIGA-NH2) |  | 6.27 nM
19 | CC[C@H](C)[C@H](NC(=O)[C@H](CCCNC(=N)N)NC(=O)[C@H](CC(=O)O)NC(=O)[C@@H](NC(=O)[C@H](CCCNC(=N)N)NC(=O)CNC(=O)CNC(=O)CCc1c[nH]c2ccccc12)[C@@H](C)CC)C(=O)NCC(=O)N[C@@H](C)C(N)=O [AP313, (IP)--G--G--R--I--D--R--I--G--A--NH2] ({Propanoyl(3-indol-3-yl)}-GGRIDRIGA-NH2) |  | 4.52 nM
